From ChEMBL document CHEMBL1124032, “Quantitative structure-activity relationships for the inhibition of Escherichia coli dihydrofolate reductase by 5-(substituted benzyl)-2,4-diaminopyrimidines” (1988)

Legend:
[1] = molecular target: T1, Dihydrofolate reductase (Escherichia coli) (UniProt P0ABQ4)
T1 sequence (whole entry): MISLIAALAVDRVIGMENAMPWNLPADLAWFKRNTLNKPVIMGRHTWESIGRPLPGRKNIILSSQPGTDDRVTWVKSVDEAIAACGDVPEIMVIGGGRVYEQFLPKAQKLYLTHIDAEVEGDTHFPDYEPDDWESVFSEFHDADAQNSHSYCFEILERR
Description: Apparent inhibitory (log 1/Ki) activity against Escherichia coli dihydrofolate reductase

[2] = tested on: Escherichia coli; assay: The logarithm of the inverse of the concentration (log 1/C) for the inhibition of Escherichia coli MB 1428 growth by 80%; format: functional
[3] = tested on: Escherichia coli; assay: The logarithm of the inverse of the concentration (log 1/C) for the inhibition of Escherichia coli 1515 (Escherichia coli) growth by 80%; format: functional

Structure (SMILES)	Log 1/Ki app [1]	Log 1/C [2]	Log 1/C [3]
CS(=O)(=O)Oc1ccc(Cc2cnc(N)nc2N)cc1	8.15		
COc1ccc(Cc2cnc(N)nc2N)cc1OS(C)(=O)=O	8.96	4.13	6.42
Nc1ncc(Cc2cc(OCc3ccccc3)cc(OCc3ccccc3)c2)c(N)n1	8.77		
Nc1ncc(Cc2ccc(OCc3ccccc3)cc2)c(N)n1	8.7		
CCCOc1cc(Cc2cnc(N)nc2N)cc(OCCC)c1	8.8		
COc1ccc(Cc2cnc(N)nc2N)cc1OCc1ccccc1	10	5.02	4.96
Nc1ncc(Cc2ccc([N+](=O)[O-])cc2)c(N)n1	6.2		
CCCOc1cc(Cc2cnc(N)nc2N)cc(Br)c1OC	8.96	6.07	4.91
COc1cc(Cc2cnc(N)nc2N)ccc1O	9.05	3.51	6.45
CCCOc1cc(Cc2cnc(N)nc2N)cc(OCC)c1	8.49		
COCCOc1ccc(Cc2cnc(N)nc2N)cc1OC	9.25	4.3	5.82
COc1cc(Cc2cnc(N)nc2N)ccc1OCc1ccccc1	9.43	5.02	4.96
COc1ccc(Cc2cnc(N)nc2N)cc1C(F)(F)F	7.69		
Cc1cc(C)cc(Cc2cnc(N)nc2N)c1	8.05		
CCCCOc1cc(Cc2cnc(N)nc2N)cc(Br)c1OC	8.96	6.24	5.02
COCCOc1cc(Cc2cnc(N)nc2N)ccc1OC	8.74		
CC(=O)Nc1ccc(Cc2cnc(N)nc2N)cc1[N+](=O)[O-]	6.97		
CCOc1cc(Cc2cnc(N)nc2N)cc(OCC)c1	9.11	4.77	6.54
Nc1ncc(Cc2ccc(OC(F)(F)F)cc2)c(N)n1	6.57		
CCCCOc1ccc(Cc2cnc(N)nc2N)cc1OC	9.01	4.98	5.93
CS(=O)(=O)Oc1cccc(Cc2cnc(N)nc2N)c1	6.92		
